Consider three molecules from US7803374B2, “Targeted atherosclerosis treatment” (Barnes-Jewish Hospital, priority 2004, dated 2010).

For data set [1] the following is noted: high dose; cited from earlier work.
Data set [2] has as its system Apo E−/− mice. The conditions noted are these: cited from earlier work; for foam cell deposition or fibromuscular lesion development: early atherogenesis; for effectiveness in later treatment: later periods of treatment (32 to 48 weeks).
The nature of data set [3]: In vitro dissolution: release of fumagillin from nanoparticles by dialysis. The format is physicochemical. The conditions noted are these: generally, due to hydrophobic nature. The protocol:
Fumagillin nanoparticle emulsions (250 μl) were dialyzed in 60,000 MW cutoff dialysis tubing against 3.5 ml of releasing medium (0.9% NaCl, 0.2 mg/ml human serum albumin and 0.05% sodium azide) and continuously agitated at 37° C. The releasing medium was replaced daily and analyzed for released fumagillin concentration. Fumagillin was analyzed by reverse-phase HPLC (Waters Corporation). Chromatography was performed using a Waters Novapak C18, 60 Å, 4 μm reversed-phase column (3.9×150 mm) with an isocratic 50% acetonitrile/0.05% of phosphoric acid mobile phase (1 ml/min at ambient temperature).

The mark [4] stands for this setting: treated for 4 months (20 to 36 weeks).

Like-named read-outs stand apart in the source and are kept apart here. A value given as a limit tells only on which side of the number the result lay.

With `CO[C@@H]1[C@H](OC(=O)NC(=O)CCl)CC[C@]2(CO2)[C@H]1[C@@]1(C)O[C@@H]1CC=C(C)C` [TNP-470], the side effects result in data set [1] is on record as “serious side effects such as neurocognitive toxicity”. For the same molecule, the “intimal vessels and atheroma expansion” value in data set [2] (30 mg per kg every other day for 13 weeks) is “reduction in intimal vessels and diminished atheroma expansion”; in data set [2] (setting [4]) it was “reduced number of intimal vessels and diminished atheroma expansion”. In data set [2], the “foam cell deposition or fibromuscular lesion development” value is reported as “Neither endostatin nor TNP-470 altered”. In addition, in data set [2], the “effectiveness in later treatment” value is given as “less effective”.

As for `CO[C@@H]1[C@H](OC(=O)/C=C/C=C/C=C/C=C/C(=O)O)CC[C@]2(CO2)[C@H]1[C@@]1(C)O[C@@H]1CC=C(C)C` [fumagillin], the “fumagillin released (general statement)” value in data set [3] is reported as under 10%.

B1: endostatin: anti-angiogenic agent (protein, UniProt P39060 1572-1754, looked up)
Endostatin: HSHRDFQPVLHLVALNSPLSGGMRGIRGADFQCFQQARAVGLAGTFRAFLSSRLQDLYSIVRRADRAAVPIVNLKDELLFPSWEALFSGSEGPLKPGARIFSFDGKDVLRHPTWPQKSVWHGSDPNGRRLTESYCETWRTEAPSATGQASSLLGGRLLGQSAASCHHAYIVLCIENSFMTASK
modifications: Endostatin
notes: anti-angiogenic agent
On to B1, for which, in data set [2], the “foam cell deposition or fibromuscular lesion development” value is “Neither endostatin nor TNP-470 altered” and the “effectiveness in later treatment” value is given as “less effective”. Moreover, the “intimal vessels and atheroma expansion” value in data set [2] (setting [4]) was “reduced number of intimal vessels and diminished atheroma expansion”.
